Source: US20170190671A1, “BIS(ARYL)CATECHOL DERIVATIVES AS HERBICIDES” (E I DU PONT DE NEMOURS AND COMPANY, priority 2014, published 2017)

Assays:
Format in all cases: in vivo
[1] = test system: barnyardgrass (Echinochloa crus-galli); assay: Test B flooded paddy; settings: Echinochloa crus-galli, 336 h; 250 g ai/ha, Flood, 13 to 15 days, scale 0 (no effect) to 100 (complete control); read-out: Plant response rating, Barnyardgrass
Method in brief: (§1)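 In-water treatment: compound dosed into 3 cm flood over soil, water level unchanged throughout. Controls run alongside; visual assessment at day 13–15.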

[2] = test system: ducksalad (Heteranthera limosa); assay: Test B flooded paddy; settings: Heteranthera limosa, 336 h; 250 g ai/ha, Flood, 13 to 15 days, scale 0 (no effect) to 100 (complete control); read-out: Plant response rating, Ducksalad
Method in brief: as §1

rice (Oryza sativa) = assay: Test B flooded paddy; settings: Oryza sativa, 336 h; 250 g ai/ha, Flood, 13 to 15 days, scale 0 (no effect) to 100 (complete control); read-out: Plant response rating, Rice
Method in brief: as §1

[3] = test system: sedge, umbrella (small-flower umbrella sedge, Cyperus difformis); assay: Test B flooded paddy; settings: Cyperus difformis, 336 h; 250 g ai/ha, Flood, 13 to 15 days, scale 0 (no effect) to 100 (complete control); read-out: Plant response rating, Sedge, Umbrella
Method in brief: as §1

[4] = test system: barnyardgrass (Echinochloa crus-galli); assay: Test A preemergence; settings: Echinochloa crus-galli, pre-emergence, 240 h, 0 to 100 scale, read-out: Plant response rating, Barnyardgrass; for pest or weed control at 125 g/ha: 125 g ai/ha; for pest or weed control at 500 g/ha: 500 g ai/ha
Method in brief: (§2)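 Injury scores run from 0, no effect, to 100, complete control, judged by eye against untreated plants roughly 10 days after treatment. Chemicals carried a surfactant in a non-phytotoxic solvent and went onto loam–sand soil preemergence or onto one- to two-leaf seedlings postemergence.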

[5] = test system: giant foxtail (Setaria faberii); assay: Test A preemergence; settings: Setaria faberi, pre-emergence, 240 h; for pest or weed control at 125 g/ha: 125 g ai/ha; for pest or weed control at 500 g/ha: 500 g ai/ha
Method in brief: as §2

[6] = test system: pigweed (Amaranthus retroflexus); assay: Test A preemergence; settings: Amaranthus retroflexus, pre-emergence, 240 h; for pest or weed control at 125 g/ha: 125 g ai/ha; for pest or weed control at 500 g/ha: 500 g ai/ha
Method in brief: as §2

[7] = test system: barnyardgrass (Echinochloa crus-galli); assay: Test A postemergence; settings: Echinochloa crus-galli, post-emergence, 240 h, 0 to 100 scale, read-out: Plant response rating, Barnyardgrass; for pest or weed control at 125 g/ha: 125 g ai/ha; for pest or weed control at 500 g/ha: 500 g ai/ha
Method in brief: as §2

corn (Zea mays) = assay: Test A postemergence; settings: Zea mays, post-emergence, 240 h, 0 to 100 scale; for Corn plant response rating (crop injury, 0 = no effect, 100 = complete kill) at 125 g/ha: 125 g ai/ha; for Corn plant response rating (crop injury, 0 = no effect, 100 = complete kill) at 500 g/ha: 500 g ai/ha
Method in brief: as §2

[8] = test system: giant foxtail (Setaria faberii); assay: Test A postemergence; settings: Setaria faberi, post-emergence, 240 h, 0 to 100 scale, read-out: Plant response rating, Foxtail, Giant; for pest or weed control at 125 g/ha: 125 g ai/ha; for pest or weed control at 500 g/ha: 500 g ai/ha
Method in brief: as §2

[9] = test system: pigweed (Amaranthus retroflexus); assay: Test A postemergence; settings: Amaranthus retroflexus, post-emergence, 240 h, 0 to 100 scale, read-out: Plant response rating, Pigweed; for pest or weed control at 125 g/ha: 125 g ai/ha; for pest or weed control at 500 g/ha: 500 g ai/ha
Method in brief: as §2

[10] = test system: wheat (Triticum aestivum); assay: Test A postemergence; settings: Triticum aestivum, post-emergence, 240 h, 0 to 100 scale, read-out: Plant response rating, Wheat; for plant injury at 125 g/ha: 125 g ai/ha; for plant injury at 500 g/ha: 500 g ai/ha
Method in brief: as §2

[11] = test system: Italian ryegrass (Lolium multiflorum); assay: Test C postemergence; settings: Lolium multiflorum, post-emergence, 336 h, Postemergence, scale 0 to 100, read-out: Plant response rating, Ryegrass, Italian; for pest or weed control at 31 g/ha: 31 g ai/ha; for pest or weed control at 62 g/ha: 62 g ai/ha; for pest or weed control at 125 g/ha: 125 g ai/ha
Source text: (§3) Seeds of plant species selected from blackgrass (Alopecurus myosuroides), Italian ryegrass (Lolium multiflorum), winter wheat (Triticum aestivum), galium (catchweed bedstraw, Galium aparine), corn (Zea mays), large (Lg) crabgrass (Digitaria sanguinalis), giant foxtail (Setaria faberii), johnsongrass (Sorghum halepense), lambsquarters (Chenopodium album), morningglory (Ipomoea coccinea), yellow nutsedge (Cyperus esculentus), pigweed (Amaranthus retroflexus), ragweed (common ragweed, Ambrosia elatior), soybean (Glycine max), barnyardgrass (Echinochloa crus-galli), oilseed rape (Brassica napus), waterhemp (common waterhemp, Amaranthus rudis), and velvetleaf (Abutilon theophrasti) were planted into a blend of loam soil and sand and treated preemergence with test chemicals formulated in a non-phytotoxic solvent mixture which included a surfactant.
(§4) At the same time, plants selected from these crop and weed species and also chickweed (common chickweed, Stellaria media), kochia (Kochia scoparia), and wild oat (Avena fatua), were planted in pots containing Redi-Earth® planting medium (Scotts Company, 14111 Scottslawn Road, Marysville, Ohio 43041) comprising spaghnum peat moss, vermiculite, wetting agent and starter nutrients and treated with postemergence applications of test chemicals formulated in the same manner. Plants ranged in height from 2 to 18 cm (1- to 4-leaf stage) for postemergence treatments. Treated plants and controls were maintained in a greenhouse for 13 to 15 days, after which time all species were compared to controls and visually evaluated. Plant response ratings, summarized in Table C, are based on a scale of 0 to 100 where 0 is no effect and 100 is complete control. A dash (-) response means no test result.

wild oat (Avena fatua) = assay: Test C postemergence; settings: Avena fatua, post-emergence, Postemergence, scale 0 to 100, read-out: Plant response rating, Oat, Wild; for pest or weed control at 31 g/ha: 31 g ai/ha; for pest or weed control at 62 g/ha: 62 g ai/ha; for pest or weed control at 125 g/ha: 125 g ai/ha
Source text: as §3, §4

[12] = 0 to 100 scale, read-out: Plant response rating, Foxtail, Giant
[13] = 0 to 100 scale, read-out: Plant response rating, Pigweed

## N#Cc1cccc(Oc2ncc(Cl)cn2)c1Oc1ncc(Cl)cn1 [Compound 3, 2,3-bis[(5-chloro-2-pyrimidinyl)oxy]benzonitrile]
[1]
  pest or weed control at 250 g/ha: 20%
[2]
  pest or weed control at 250 g/ha: 90%
Rice (Oryza sativa)
  plant injury at 250 g/ha: 35%
[3]
  pest or weed control at 250 g/ha: 90%
[4]
  pest or weed control at 125 g/ha: 100%
  pest or weed control at 500 g/ha: 100%
[5]; [12]
  pest or weed control at 125 g/ha: 100%
  pest or weed control at 500 g/ha: 100%
[6]; [13]
  pest or weed control at 125 g/ha: 100%
  pest or weed control at 500 g/ha: 100%
[7]
  pest or weed control at 125 g/ha: 90%
  pest or weed control at 500 g/ha: 90%
Corn (Zea mays)
  Corn plant response rating (crop injury, 0 = no effect, 100 = complete kill) at 125 g/ha: 50%
  Corn plant response rating (crop injury, 0 = no effect, 100 = complete kill) at 500 g/ha: 80%
[8]
  pest or weed control at 125 g/ha: 90%
  pest or weed control at 500 g/ha: 90%
[9]
  pest or weed control at 125 g/ha: 100%
  pest or weed control at 500 g/ha: 100%
[10]
  plant injury at 125 g/ha: 60%
  plant injury at 500 g/ha: 80%
[11]
  pest or weed control at 31 g/ha: 5%
  pest or weed control at 62 g/ha: 5%
  pest or weed control at 125 g/ha: 5%
[11]; 250 g ai/ha
  pest or weed control at 250 g/ha: 35%
Wild oat (Avena fatua)
  pest or weed control at 31 g/ha: 15%
  pest or weed control at 62 g/ha: 30%
  pest or weed control at 125 g/ha: 35%
Wild oat (Avena fatua); 250 g ai/ha
  pest or weed control at 250 g/ha: 35%

## Fc1cccc(Oc2ncc(Cl)cn2)c1Oc1ncc(Cl)cn1 [Compound 21, 2,2′-[[3-fluoro-1,2-phenylene]bis(oxy)]bis[5-chloropyrimidine]]
[1]
  pest or weed control at 250 g/ha: 35%
[2]
  pest or weed control at 250 g/ha: 100%
Rice (Oryza sativa)
  plant injury at 250 g/ha: 40%
[3]
  pest or weed control at 250 g/ha: 90%
[4]
  pest or weed control at 125 g/ha: 90%
  pest or weed control at 500 g/ha: 100%
[5]; 0 to 100 scale (0 no effect, 100 complete control), read-out: Foxtail, Giant plant response rating
  pest or weed control at 125 g/ha: 100%
[5]; [12]
  pest or weed control at 500 g/ha: 100%
[6]; 0 to 100 scale (0 no effect, 100 complete control), read-out: Pigweed plant response rating
  pest or weed control at 125 g/ha: 100%
[6]; [13]
  pest or weed control at 500 g/ha: 100%
[7]
  pest or weed control at 125 g/ha: 80%
  pest or weed control at 500 g/ha: 90%
Corn (Zea mays)
  Corn plant response rating (crop injury, 0 = no effect, 100 = complete kill) at 125 g/ha: 50%
  Corn plant response rating (crop injury, 0 = no effect, 100 = complete kill) at 500 g/ha: 60%
[8]
  pest or weed control at 125 g/ha: 90%
  pest or weed control at 500 g/ha: 90%
[9]
  pest or weed control at 125 g/ha: 100%
  pest or weed control at 500 g/ha: 100%
[10]
  plant injury at 125 g/ha: 50%
  plant injury at 500 g/ha: 60%
[11]
  pest or weed control at 31 g/ha: 0%
  pest or weed control at 62 g/ha: 0%
  pest or weed control at 125 g/ha: 25%
Wild oat (Avena fatua)
  pest or weed control at 31 g/ha: 0%
  pest or weed control at 62 g/ha: 0%
  pest or weed control at 125 g/ha: 40%
